# Test results as given in patent US20260262643A1, “HERBICIDAL BENZOXAZINES” (FMC CORPORATION, priority 2022, published 2026).
# Experiments:
# [1] = tested on: barnyardgrass; experiment: Test C preemergence; assay type: in vivo, Echinochloa crusgalli; settings: 0 to 100 scale (0 no effect, 100 complete control); for Barnyardgrass plant response rating: preemergence
# Outline: (§1)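 Pre: seeds in loam/sand, directed soil spray. Post: 1–2 leaf plants, 2–10 cm. Cmpd in non-phytotoxic solvent + surfactant. Greenhouse 10 d; visual rating vs untreated, 0 = none, 100 = complete control.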
# [2] = tested on: blackgrass; experiment: Test C preemergence; assay type: in vivo, Alopecurus myosuroides; settings: 0 to 100 scale (0 no effect, 100 complete control); for Blackgrass plant response rating: preemergence
# Outline: as §1
# [3] = tested on: corn; experiment: Test C preemergence; assay type: in vivo, Zea mays; settings: 0 to 100 scale (0 no effect, 100 complete control); for Corn plant response rating: preemergence
# Outline: as §1
# [4] = tested on: green foxtail; experiment: Test C preemergence; assay type: in vivo, Setaria viridis; settings: 0 to 100 scale (0 no effect, 100 complete control); for Foxtail, Green plant response rating: preemergence
# Outline: as §1
# [5] = tested on: kochia; experiment: Test C preemergence; assay type: in vivo, Bassia scoparia; settings: 0 to 100 scale (0 no effect, 100 complete control); for Kochia plant response rating: preemergence
# Outline: as §1
# [6] = tested on: oat, wild; experiment: Test C preemergence; assay type: in vivo, Avena fatua; settings: 0 to 100 scale (0 no effect, 100 complete control); for Oat, Wild plant response rating: preemergence
# Outline: as §1
# [7] = tested on: pigweed, palmer; experiment: Test C preemergence; assay type: in vivo, Amaranthus palmeri; settings: 0 to 100 scale (0 no effect, 100 complete control); for Pigweed, Palmer plant response rating: preemergence
# Outline: as §1
# [8] = tested on: ragweed; experiment: Test C preemergence; assay type: in vivo, Ambrosia artemisiifolia; settings: 0 to 100 scale (0 no effect, 100 complete control); for Ragweed plant response rating: preemergence
# Outline: as §1
# [9] = tested on: ryegrass, Italian; experiment: Test C preemergence; assay type: in vivo, Lolium multiflorum; settings: 0 to 100 scale (0 no effect, 100 complete control); for Ryegrass, Italian plant response rating: preemergence
# Outline: as §1
# [10] = tested on: soybean; experiment: Test C preemergence; assay type: in vivo, Glycine max; settings: 0 to 100 scale (0 no effect, 100 complete control); for Soybean plant response rating: preemergence
# Outline: as §1
# [11] = tested on: wheat; experiment: Test C preemergence; assay type: in vivo, Triticum aestivum; settings: 0 to 100 scale (0 no effect, 100 complete control); for Wheat plant response rating: preemergence
# Outline: as §1
# [12] = tested on: barnyardgrass; experiment: Test C postemergence; assay type: in vivo, Echinochloa crusgalli; settings: 10 days
# Outline: as §1
# [13] = tested on: blackgrass; experiment: Test C postemergence; assay type: in vivo, Alopecurus myosuroides; settings: 10 days
# Outline: as §1
# [14] = tested on: corn; experiment: Test C postemergence; assay type: in vivo, Zea mays; settings: 10 days
# Outline: as §1
# [15] = tested on: green foxtail; experiment: Test C postemergence; assay type: in vivo, Setaria viridis; settings: 10 days
# Outline: as §1
# [16] = tested on: kochia; experiment: Test C postemergence; assay type: in vivo, Bassia scoparia; settings: 10 days
# Outline: as §1
# [17] = tested on: oat, wild; experiment: Test C postemergence; assay type: in vivo, Avena fatua; settings: 10 days
# Outline: as §1
# [18] = tested on: pigweed, palmer; experiment: Test C postemergence; assay type: in vivo, Amaranthus palmeri; settings: 10 days
# Outline: as §1
# [19] = tested on: ragweed; experiment: Test C postemergence; assay type: in vivo, Ambrosia artemisiifolia; settings: 10 days
# Outline: as §1
# [20] = tested on: ryegrass, Italian; experiment: Test C postemergence; assay type: in vivo, Lolium multiflorum; settings: 10 days
# Outline: as §1
# [21] = tested on: soybean; experiment: Test C postemergence; assay type: in vivo, Glycine max; settings: 10 days
# Outline: as §1
# [22] = tested on: wheat; experiment: Test C postemergence; assay type: in vivo, Triticum aestivum; settings: 10 days
# Outline: as §1
# [23] = tested on: galium; experiment: Test C postemergence; assay type: in vivo, Galium aparine; settings: 10 days
# Outline: as §1
# [24] = tested on: horseweed; experiment: Test C postemergence; assay type: in vivo, Erigeron canadensis; settings: 10 days
# Outline: as §1
# [25] = tested on: barnyardgrass; experiment: Test D flooded paddy test; assay type: in vivo, Echinochloa crus-galli; settings: 250 g ai/ha, applied to paddy water, visual rating after 13 to 14 days, scale 0 to 100 (0 no effect, 100 complete control)
# Outline: (§2)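 Post-flood water application at the 2-leaf stage; 3 cm flood depth kept constant; visual control rating 0–100 after 13–14 days greenhouse growth.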
# [26] = tested on: ducksalad; experiment: Test D flooded paddy test; assay type: in vivo, Heteranthera limosa; settings: 250 g ai/ha, applied to paddy water, visual rating after 13 to 14 days, scale 0 to 100 (0 no effect, 100 complete control)
# Outline: as §2
# [27] = tested on: rice; experiment: Test D flooded paddy test; assay type: in vivo, Oryza sativa; settings: 250 g ai/ha, applied to paddy water, visual rating after 13 to 14 days, scale 0 to 100 (0 no effect, 100 complete control)
# Outline: as §2
# [28] = tested on: sedge, umbrella; experiment: Test D flooded paddy test; assay type: in vivo, Cyperus difformis; settings: 250 g ai/ha, applied to paddy water, visual rating after 13 to 14 days, scale 0 to 100 (0 no effect, 100 complete control)
# Outline: as §2
# [29] = Preemergence, 500 g ai/ha, visual rating after 10 days
# [30] = 125 g ai/ha, postemergence, 0 to 100 scale, 0 no effect, 100 complete control
# [31] = Postemergence, 500 g ai/ha, visual 0 to 100 scale (0 no effect, 100 complete control)
# [32] = 500 g ai/ha, postemergence, 0 to 100 scale (0 no effect, 100 complete control)
# [33] = Postemergence, 125 g ai/ha, 0 to 100 scale (0 no effect, 100 complete control)
smiles,measurement,setting,value
CC(C)c1ncn(-c2ccc(S(=O)(=O)C(F)(F)F)c(C(=O)N3C[C@H](C)Oc4c(Cl)cccc43)c2)n1 [Compound 229],"Plant response rating, Barnyardgrass",[1]; [29],0
same,Barnyardgrass plant response rating,"[1]; Test C, 125 g ai/ha",0
same,"Plant response rating, Blackgrass",[2]; [29],0
same,Blackgrass plant response rating,"[2]; Test C, 125 g ai/ha",0
same,"Plant response rating, Corn",[3]; [29],0
same,Corn plant response rating,"[3]; Test C, 125 g ai/ha",0
same,"Plant response rating, Foxtail, Green",[4]; [29],0
same,"Foxtail, Green plant response rating","[4]; Test C, 125 g ai/ha",0
same,"Plant response rating, Kochia",[5]; [29],0
same,Kochia plant response rating,"[5]; Test C, 125 g ai/ha",0
same,"Plant response rating, Oat, Wild",[6]; [29],0
same,"Oat, Wild plant response rating","[6]; Test C, 125 g ai/ha",0
same,"Plant response rating, Pigweed, Palmer",[7]; [29],0
same,"Pigweed, Palmer plant response rating","[7]; Test C, 125 g ai/ha",0
same,"Plant response rating, Ragweed",[8]; [29],0
same,Ragweed plant response rating,"[8]; Test C, 125 g ai/ha",0
same,"Plant response rating, Ryegrass, Italian",[9]; [29],10
same,"Ryegrass, Italian plant response rating","[9]; Test C, 125 g ai/ha",0
same,"Plant response rating, Soybean",[10]; [29],0
same,Soybean plant response rating,"[10]; Test C, 125 g ai/ha",0
same,"Plant response rating, Wheat",[11]; [29],0
same,Wheat plant response rating,"[11]; Test C, 125 g ai/ha",0
same,"Plant response rating, Barnyardgrass",[12]; [30],0
same,"Plant response rating, Barnyardgrass",[12]; [31],0
same,"Plant response rating, Blackgrass",[13]; [30],0
same,"Plant response rating, Blackgrass",[13]; [31],0
same,"Plant response rating, Corn",[14]; [30],0
same,"Plant response rating, Corn",[14]; [31],0
same,"Plant response rating, Foxtail, Green",[15]; [30],0
same,"Plant response rating, Foxtail, Green",[15]; [31],0
same,"Plant response rating, Kochia",[16]; [30],0
same,"Plant response rating, Kochia",[16]; [31],0
same,"Plant response rating, Oat, Wild",[17]; [30],0
same,"Plant response rating, Oat, Wild",[17]; [31],0
same,"Plant response rating, Pigweed, Palmer",[18]; [30],0
same,"Plant response rating, Pigweed, Palmer",[18]; [31],0
same,"Plant response rating, Ragweed",[19]; [30],0
same,"Plant response rating, Ragweed",[19]; [31],0
same,"Plant response rating, Ryegrass, Italian",[20]; [30],0
same,"Plant response rating, Soybean",[21]; [30],40
same,"Plant response rating, Soybean",[21]; [31],40
same,"Plant response rating, Wheat",[22]; [30],0
same,"Plant response rating, Wheat",[22]; [31],0
same,"Plant response rating, Galium",[23]; [30],0
same,"Plant response rating, Galium",[23]; [31],0
same,"Plant response rating, Horseweed",[24]; [30],0
same,"Plant response rating, Horseweed",[24]; [31],0
same,"Plant response rating, Barnyardgrass (Flood)",[25],0
same,"Plant response rating, Ducksalad (Flood)",[26],0
same,"Plant response rating, Rice (Flood)",[27],0
same,"Plant response rating, Sedge, Umbrella (Flood)",[28],0
Cc1cccc2c1O[C@@H](C)CN2C(=O)c1cccc(-n2cnc(N)n2)c1 [Compound 308],Barnyardgrass plant response rating,[1]; 500 g ai/ha,50
same,Barnyardgrass plant response rating,"[1]; Test C, 125 g ai/ha",0
same,Blackgrass plant response rating,[2]; 500 g ai/ha,30
same,Blackgrass plant response rating,"[2]; Test C, 125 g ai/ha",0
same,Corn plant response rating,[3]; 500 g ai/ha,0
same,Corn plant response rating,"[3]; Test C, 125 g ai/ha",0
same,"Foxtail, Green plant response rating",[4]; 500 g ai/ha,90
same,"Foxtail, Green plant response rating","[4]; Test C, 125 g ai/ha",30
same,Kochia plant response rating,[5]; 500 g ai/ha,20
same,Kochia plant response rating,"[5]; Test C, 125 g ai/ha",0
same,"Oat, Wild plant response rating",[6]; 500 g ai/ha,70
same,"Oat, Wild plant response rating","[6]; Test C, 125 g ai/ha",0
same,"Pigweed, Palmer plant response rating",[7]; 500 g ai/ha,80
same,"Pigweed, Palmer plant response rating","[7]; Test C, 125 g ai/ha",20
same,Ragweed plant response rating,[8]; 500 g ai/ha,20
same,Ragweed plant response rating,"[8]; Test C, 125 g ai/ha",30
same,"Ryegrass, Italian plant response rating",[9]; 500 g ai/ha,70
same,"Ryegrass, Italian plant response rating","[9]; Test C, 125 g ai/ha",30
same,Soybean plant response rating,[10]; 500 g ai/ha,0
same,Soybean plant response rating,"[10]; Test C, 125 g ai/ha",0
same,Wheat plant response rating,[11]; 500 g ai/ha,30
same,Wheat plant response rating,"[11]; Test C, 125 g ai/ha",0
same,"Plant response rating, Barnyardgrass",[12]; [32],30
same,"Plant response rating, Barnyardgrass",[12]; [33],10
same,"Plant response rating, Blackgrass",[13]; [32],60
same,"Plant response rating, Blackgrass",[13]; [33],10
same,"Plant response rating, Corn",[14]; [32],40
same,"Plant response rating, Corn",[14]; [33],10
same,"Plant response rating, Foxtail, Green",[15]; [32],50
same,"Plant response rating, Foxtail, Green",[15]; [33],20
same,"Plant response rating, Kochia",[16]; [32],20
same,"Plant response rating, Kochia",[16]; [33],20
same,"Plant response rating, Oat, Wild",[17]; [32],0
same,"Plant response rating, Oat, Wild",[17]; [33],0
same,"Plant response rating, Pigweed, Palmer",[18]; [32],50
same,"Plant response rating, Pigweed, Palmer",[18]; [33],10
same,"Plant response rating, Ragweed",[19]; [32],30
same,"Plant response rating, Ragweed",[19]; [33],0
same,"Plant response rating, Ryegrass, Italian",[20]; [32],20
same,"Plant response rating, Ryegrass, Italian",[20]; [33],0
same,"Plant response rating, Soybean",[21]; [32],100
same,"Plant response rating, Soybean",[21]; [33],90
same,"Plant response rating, Wheat",[22]; [32],20
same,"Plant response rating, Wheat",[22]; [33],10
same,"Plant response rating, Galium",[23]; [32],80
same,"Plant response rating, Galium",[23]; [33],70
same,"Plant response rating, Horseweed",[24]; [32],0
same,"Plant response rating, Horseweed",[24]; [33],20
same,"Plant response rating, Barnyardgrass (Flood)",[25],0
same,"Plant response rating, Ducksalad (Flood)",[26],0
same,"Plant response rating, Rice (Flood)",[27],0
same,"Plant response rating, Sedge, Umbrella (Flood)",[28],0
